This note sets out measurements from article PMC12362582, “Linker Methylation as a Strategy to Enhance PROTAC Oral Bioavailability: Insights from Molecular Properties and Conformational Analysis” (Journal of Medicinal Chemistry, 2025).

The nature of data set [1]: Chamelogk chromatographic chameleonicity (PLRP-S column). Format: physicochemical. As to conditions: Exp. log k'100 – Ext. log k'100, PLRP-S column. From the text:
Chameleonicity was monitored by Chamelogk, a recent chromatographic descriptor able to capture environment-dependent conformational changes by monitoring different mobile phase compositions on the PLRP-S column. All PROTACs behave as strong chameleons (Chamelogk > 0.6). Additionally, we calculated the EPSA-to-TPSA ratio (ETR), a recently proposed index for polarity masking. The ETR values remained consistently around 0.7 across the series, supporting the notion that conformational effects contribute uniformly to the polarity profiles of the analyzed PROTACs.
Using the PLRP-S column, we assessed the RT of each PROTAC in the data set at four different mobile phase conditions (50, 60, 70 and 100% MeCN) and calculated the capacity factor at each mobile phase composition. First, we constructed a linear trend using the first three mobile phase conditions (50, 60, and 70% MeCN) that respected a linear behavior and calculated the extrapolated value at 100% MeCN (Ext. log k′100). Chamelogk was then calculated with the following equation: Chamelogk = Exp. log k′100 – Ext. log k′100.

Data set [2] is described as follows: Bidirectional Caco-2 permeability and efflux ratio assay. Format: in vitro ADME. The conditions noted are these: human.
Data set [3] in a line: In vivo pharmacokinetics in mice (oral bioavailability, clearance). As to conditions: for bioavailability: female, BomTac:NMRI-Foxn1nu, mouse, plasma, mice, AUC_DN oral (typically 30 mg/kg) / AUC_DN IV (5 mg/kg) * 100, read-out: F% (oral bioavailability in mice); for Mouse CL (% Qh): mouse clearance as % of hepatic blood flow. The protocol:
Bioavailability in mice was determined by comparing plasma exposure after oral administration with plasma exposure after intravenous administration (see Experimental Part). The investigated data set includes PROTACs with very low (F < 1%), low (F < 5%) and medium/high (F > 5%, in bold in Table ) oral bioavailability. Only low-clearance PROTACs were investigated, with clearance of less than 10% of the hepatic blood flow, to avoid extensive hepatic first-pass effect (Mouse CL see Table S2).
The authors confirm that the research in this study complies with all relevant ethical regulations. All animal studies were approved by the internal ethics committee (called “ethics committee”) of Boehringer Ingelheim RCV GmbH & Co KG in the department of Cancer Pharmacology and Disease Positioning. Furthermore, all protocols were approved by the Austrian governmental committee (MA 60 Veterinary office; approval numbers GZ: 903122/2017/21, GZ: 154399/2018/16, GZ: MA 58–670393–2019–18, GZ: MA 58–546776–2022–13). Female BomTac:NMRI-Foxn1nu mice were obtained from Taconic Denmark at an age of 6–8 weeks. After arrival at the local AAALAC accredited animal facility at Boehringer Ingelheim RCV GmbH & Co KG mice were allowed to adjust to housing conditions for at least 5 days before the start of the experiment, i.e. mice in all experiments were 7–9 weeks old. Mice were group-housed under pathogen-free and controlled environmental conditions (21 ± 1.5 °C temperature, 55 ± 10% humidity) and handled according to the institutional, governmental and European Union guidelines (Austrian Animal Protection Laws, GV SOLAS and FELASA). Animal studies were approved as described in the Ethics section. Food and water were provided ad libitum.
All pharmacokinetic studies were conducted with three mice per dose group and testing route. Oral bioavailability was determined by comparing the dose-normalized area under the plasma concentration–time curve (AUC_DN) following oral administration to the AUC_DN after intravenous (IV) administration of the same drug. All oral administrations were conducted with a volume of application of 10 mL/kg, typically at a dose of 30 mg/kg as a solution in a 25% to 40% HP-β-CD at a pH range of 4 to 5. Intravenous administrations were conducted at a dose of 5 mg/kg, with a volume of application of 5 mL/kg in 25% HP-β-CD at a pH of 5. Blood samples were obtained from the vena saphena at five time points after each administration, with the aim of measuring the drug concentration in the plasma. The concentrations of the compound in plasma samples were determined by quantitative HPLC-MS/MS, employing an internal standard. Calibration and quality control samples were prepared using blank plasma from untreated animals. The samples were precipitated with acetonitrile and subsequently injected into an HPLC system (Agilent 1200). The separation was conducted using a gradient of 5 mmol/L ammonium acetate at pH 4.0 and acetonitrile with 0.1% formic acid on a 2.1 mm by 50 mm XBridge BEH C18 reversed-phase column with 2.5 μm particles (Waters). The HPLC was interfaced with an ESI-operated triple quadrupole mass spectrometer (5000 or 6500+ Triple Quad System, SCIEX) operated in multiple reaction monitoring mode. The chromatograms were analyzed using Analyst (SCIEX), and the pharmacokinetic parameters, such as AUC_DN, were calculated using noncompartmental analysis with BI-proprietary software.
The oral bioavailability (F%) was calculated using the following formula: F% = AUC_DN_oral/AUC_DN_IV) * 100.

[4] abbreviates: with Zosuquidar (P-gp inhibitor), concentration not given, Caco-2, in the presence of a Pgp inhibitor (Zosuquidar), read-out: ER (+Pgp inhibitor).
Setting [5] is: Caco-2, in the absence of an inhibitor, read-out: ER (Caco-2 efflux ratio).

Where two headings read alike, the source gives them in different places.

In data set [1], `Cc1ncsc1-c1ccc([C@H](CCCN2CCC(c3ccc4c(c3)n(C3CCCC3)c3nc(=O)c5c(Br)cccc5n43)CC2)NC(=O)[C@@H]2C[C@@H](O)CN2C(=O)[C@@H](NC(=O)C2(F)CC2)C(C)(C)C)cc1` [A3-1] returned a Chamelogk greater than 2. Moreover, the efflux ratio at 1 μM in data set [2] (setting [4]) turned out to be 1.8. For the same molecule, in data set [3], the bioavailability was determined as 0.6% and the “Mouse CL (% Qh)” value is 7.9 % Qh.
Take `Cc1ncsc1-c1ccc([C@H](C[C@H](C)CN2CCC(c3ccc4c(c3)n(C3CCCC3)c3nc(=O)c5c(Br)cccc5n43)CC2)NC(=O)[C@@H]2C[C@@H](O)CN2C(=O)[C@@H](NC(=O)C2(F)CC2)C(C)(C)C)cc1` [A3-2]: the Chamelogk in data set [1] is on record as greater than 2. For the same molecule, in data set [2] (setting [4]), the efflux ratio at 1 μM worked out at 0.9. In addition, the efflux ratio at 1 μM in data set [2] (setting [5]) is 9. In data set [3], the bioavailability is 5.4% and the “Mouse CL (% Qh)” value is reported as 3.6 % Qh.
In the case of `Cc1ncsc1-c1ccc([C@H](C[C@@H](C)CN2CCC(c3ccc4c(c3)n(C3CCCC3)c3nc(=O)c5c(Br)cccc5n43)CC2)NC(=O)[C@@H]2C[C@@H](O)CN2C(=O)[C@@H](NC(=O)C2(F)CC2)C(C)(C)C)cc1` [A3-3], in data set [1], the Chamelogk is recorded as greater than 2. Moreover, the efflux ratio at 1 μM in data set [2] (setting [4]) is 0.4. In data set [2] (setting [5]), the efflux ratio at 1 μM turned out to be 5.1. In data set [3], the bioavailability turned out to be 16.4% and the “Mouse CL (% Qh)” value stood at 9.3 % Qh.
As to `Cc1ncsc1-c1ccc([C@H](CCCCCN2CCC(c3ccc4c(c3)n(C3CCCC3)c3nc(=O)c5c(Br)cccc5n43)CC2)NC(=O)[C@@H]2C[C@@H](O)CN2C(=O)[C@@H](NC(=O)C2(F)CC2)C(C)(C)C)cc1` [A5-1], in data set [1], the Chamelogk is greater than 2. In data set [2] (setting [4]), the efflux ratio at 1 μM worked out at 1.6. Moreover, the efflux ratio at 1 μM in data set [2] (setting [5]) came to 24.2. Moreover, in data set [3], the bioavailability amounted to 4.3% and the “Mouse CL (% Qh)” value is on record as 2.5 % Qh.
`Cc1ncsc1-c1ccc([C@H](CC[C@H](C)CCN2CCC(c3ccc4c(c3)n(C3CCCC3)c3nc(=O)c5c(Br)cccc5n43)CC2)NC(=O)[C@@H]2C[C@@H](O)CN2C(=O)[C@@H](NC(=O)C2(F)CC2)C(C)(C)C)cc1` [A5-2] came in with a Chamelogk in data set [1] greater than 2. Further, the efflux ratio at 1 μM in data set [2] (setting [4]) stood at 1.6. Further, the efflux ratio at 1 μM in data set [2] (setting [5]) was determined as 7.5. In data set [3], the bioavailability is 22.1% and the “Mouse CL (% Qh)” value was determined as 2.3 % Qh.
For the molecule `Cc1ncsc1-c1ccc([C@H](CC[C@@H](C)CCN2CCC(c3ccc4c(c3)n(C3CCCC3)c3nc(=O)c5c(Br)cccc5n43)CC2)NC(=O)[C@@H]2C[C@@H](O)CN2C(=O)[C@@H](NC(=O)C2(F)CC2)C(C)(C)C)cc1` [A5-3], the Chamelogk in data set [1] is on record as greater than 2. In data set [2] (setting [4]), the efflux ratio at 1 μM turned out to be 1. The efflux ratio at 1 μM in data set [2] (setting [5]) was 3.3. Besides, in data set [3], the bioavailability amounted to 31.5% and the “Mouse CL (% Qh)” value is 3.9 % Qh.
In turn, `Cc1ncsc1-c1ccc([C@@H](CC[C@@H](C)CCN2CCC(c3ccc4c(c3)n(C3CCCC3)c3nc(=O)c5c(Br)cccc5n43)CC2)NC(=O)[C@@H]2C[C@@H](O)CN2C(=O)[C@@H](NC(=O)C2(F)CC2)C(C)(C)C)cc1` [A5-4] yielded a Chamelogk in data set [1] greater than 2. The efflux ratio at 1 μM in data set [2] (setting [4]) came to 0.9. Also, in data set [3], the bioavailability was 1.2% and the “Mouse CL (% Qh)” value is reported as 2.8 % Qh.
In the same order, the values of `Cc1ncsc1-c1ccc([C@H](COCCN2CCC(c3ccc4c(c3)n(C3CCCC3)c3nc(=O)c5c(Br)cccc5n43)CC2)NC(=O)[C@@H]2C[C@@H](O)CN2C(=O)[C@@H](NC(=O)C2(F)CC2)C(C)(C)C)cc1` [B-1] are greater than 2, 3, 0.9% and 8.5 % Qh.
The corresponding values for `Cc1ncsc1-c1ccc([C@H](CO[C@H](C)CN2CCC(c3ccc4c(c3)n(C3CCCC3)c3nc(=O)c5c(Br)cccc5n43)CC2)NC(=O)[C@@H]2C[C@@H](O)CN2C(=O)[C@@H](NC(=O)C2(F)CC2)C(C)(C)C)cc1` [B-2] are greater than 2, 1.8, 1.7% and 5.4 % Qh.
For the molecule `Cc1ncsc1-c1ccc([C@H](CO[C@@H](C)CN2CCC(c3ccc4c(c3)n(C3CCCC3)c3nc(=O)c5c(Br)cccc5n43)CC2)NC(=O)[C@@H]2C[C@@H](O)CN2C(=O)[C@@H](NC(=O)C2(F)CC2)C(C)(C)C)cc1` [B-3], the Chamelogk in data set [1] is greater than 2. Moreover, the efflux ratio at 1 μM in data set [2] (setting [4]) turned out to be 2.2. For the same molecule, the efflux ratio at 1 μM in data set [2] (setting [5]) worked out at 23.9. Also, in data set [3], the bioavailability was 2.3% and the “Mouse CL (% Qh)” value is 7.1 % Qh.
The corresponding values for `Cc1ncsc1-c1ccc([C@H](COC(C)(C)CN2CCC(c3ccc4c(c3)n(C3CCCC3)c3nc(=O)c5c(Br)cccc5n43)CC2)NC(=O)[C@@H]2C[C@@H](O)CN2C(=O)[C@@H](NC(=O)C2(F)CC2)C(C)(C)C)cc1` [B-4] are greater than 2, 1.1, 31.3, 90.9% and 6.0 % Qh.

For orientation: bioavailability means the share of a dose that reaches the circulation, judged against a reference dose that is usually intravenous.
